The record followed here is patent US11512054B2, “Pesticidal compounds” (BASF SE, priority 2017, dated 2022).

Common to all, as to assay type: in vivo
For assay [1], the system named is Orchid Thrips (Dichromothrips corbetti). Briefly: Action on orchid thrips, floral-immersion technique. The conditions noted are these: adult thrips, 72 hours after treatment, read-out: mortality in comparison with untreated controls. As for the experimental part: Dichromothrips corbetti adults used for bioassay were obtained from a colony maintained continuously under laboratory conditions. For testing purposes, the test compound is diluted in a 1:1 mixture of acetone:water (vol:vol), plus Kinetic® HV at a rate of 0.01% v/v.
Thrips potency of each compound was evaluated by using a floral-immersion technique. All petals of individual, intact orchid flowers were dipped into treatment solution and allowed to dry in Petri dishes. Treated petals were placed into individual re-sealable plastic along with about 20 adult thrips. All test arenas were held under continuous light and a temperature of about 28° C. for duration of the assay. After 3 days, the numbers of live thrips were counted on each petal. The percent mortality was recorded 72 hours after treatment.

In assay [2] the test system is tobacco budworm (Heliothis virescens). Put plainly: Action on tobacco budworm, eggs on insect diet in 96-well microtiter plates. The conditions noted are these: 120 h, egg and larval mortality after 5 days, read-out: mortality in comparison with untreated controls. As for the experimental part:
For evaluating control of tobacco budworm (Heliothis virescens) the test unit consisted of 96-well-microtiter plates containing an insect diet and 15-25 H. virescens eggs.
The compounds were formulated using a solution containing 75% v/v water and 25% v/v DMSO. Different concentrations of formulated compounds were sprayed onto the insect diet at 10 μl, using a custom built micro atomizer, at two replications.
After application, microtiter plates were incubated at about 28+1° C. and about 80+5% relative humidity for 5 days. Egg and larval mortality was then visually assessed.

Assay [3] has as its system Diamond Back Moth (Plutella xylostella). Briefly: Action on diamond back moth, cabbage leaf dip. The conditions noted are these: foliar, 3rd instar larvae, 72 hours after treatment, read-out: mortality in comparison with untreated controls. As for the experimental part: The active compound is dissolved at the desired concentration in a mixture of 1:1 (v/v) distilled water:acetone. Surfactant (Kinetic® HV) is added at a rate of 0.01% (v/v). The test solution is prepared at the day of use.
Leaves of cabbage were dipped in test solution and air-dried. Treated leaves were placed in petri dishes lined with moist filter paper and inoculated with ten 3rd instar larvae. Mortality was recorded 72 hours after treatment. Feeding damages were also recorded using a scale of 0-100%.

The subject of assay [4] is yellow fever mosquito (Aedes aegypti). Briefly: whole plant or invertebrate. The conditions noted are these: 48 h, larval mortality visually assessed after 2 days, read-out: mortality in comparison with untreated controls. As for the experimental part: For evaluating control of yellow fever mosquito (Aedes aegypti) the test unit consisted of 96-well-microtiter plates containing 200 μl of tap water per well and 5-15 freshly hatched A. aegypti larvae.
The active compounds or mixtures were formulated using a solution containing 75% (v/v) water and 25% (v/v) DMSO. Different concentrations of formulated compounds or mixtures were sprayed onto the insect diet at 2.5 μl, using a custom built micro atomizer, at two replications. For experimental mixtures in these tests identical volumes of both mixing partners at the desired concentrations respectively, were mixed together.
After application, microtiter plates were incubated at 28±1° C., 80±5% RH for 2 days. Larval mortality was then visually assessed.

Assay [5] concerns boll weevil (Anthonomus grandis). Briefly: Action on boll weevil, eggs on insect diet in 96-well microtiter plates. The conditions noted are these: 120 h, egg and larval mortality after 5 days, read-out: mortality in comparison with untreated controls. As for the experimental part:
For evaluating control of boll weevil (Anthonomus grandis) the test unit consisted of 96-well-microtiter plates containing an insect diet and 5-10 A. grandis eggs.
The compounds were formulated using a solution containing 75% (v/v) water and 25% (v/v) DMSO. Different concentrations of formulated compounds were sprayed onto the insect diet at 5 μl, using a custom built micro atomizer, at two replications.
After application, microtiter plates were incubated at about 25+1° C. and about 75+5% relative humidity for 5 days. Egg and larval mortality was then visually assessed.

For assay [6], the system named is Silverleaf Whitefly (Bemisia argentifoli) (Adults). Briefly: Action on silverleaf whitefly adults, sprayed cotton plants. The conditions noted are these: Bemisia argentifolii, 72 h, 3 days after treatment, read-out: mortality in comparison with untreated controls. As for the experimental part: The active compounds were formulated by a Tecan liquid handler in 100% cyclohexanone as a 10,000 ppm solution supplied in tubes. The 10,000 ppm solution was serially diluted in 100% cyclohexanone to make interim solutions. These served as stock solutions for which final dilutions were made by the Tecan in 50% acetone:50% water (v/v) into 5 or 10 ml glass vials. A nonionic surfactant (Kinetic®) was included in the solution at a volume of 0.01% (v/v). The vials were then inserted into an automated electrostatic sprayer equipped with an atomizing nozzle for application to plants/insects.
Cotton plants at the cotyledon stage (one plant per pot) were sprayed by an automated electrostatic plant sprayer equipped with an atomizing spray nozzle. The plants were dried in the sprayer fume hood and then removed from the sprayer. Each pot was placed into a plastic cup and about 10 to 12 whitefly adults (approximately 3-5 days old) were introduced. The insects were collected using an aspirator and a nontoxic Tygon® tubing connected to a barrier pipette tip. The tip, containing the collected insects, was then gently inserted into the soil containing the treated plant, allowing insects to crawl out of the tip to reach the foliage for feeding. Cups were covered with a reusable screened lid. Test plants were maintained in a growth room at about 25° C. and about 20-40% relative humidity for 3 days, avoiding direct exposure to fluorescent light (24 hour photoperiod) to prevent trapping of heat inside the cup. Mortality was assessed 3 days after treatment, compared to untreated control plants.

The test system of assay [7] is Southern Armyworm (Spodoptera eridania), 2nd Instar Larvae. Briefly: Action on southern armyworm, sprayed lima bean plants. The conditions noted are these: 96 h, 2nd instar larvae on lima bean, 4 days after treatment, read-out: mortality in comparison with untreated controls. As for the experimental part:
The active compounds were formulated by a Tecan liquid handler in 100% cyclohexanone as a 10,000 ppm solution supplied in tubes. The 10,000 ppm solution was serially diluted in 100% cyclohexanone to make interim solutions. These served as stock solutions for which final dilutions were made by the Tecan in 50% acetone:50% water (v/v) into 10 or 20 ml glass vials. A nonionic surfactant (Kinetic®) was included in the solution at a volume of 0.01% (v/v). The vials were then inserted into an automated electrostatic sprayer equipped with an atomizing nozzle for application to plants/insects.
Lima bean plants (variety Sieva) were grown 2 plants to a pot and selected for treatment at the 1st true leaf stage. Test solutions were sprayed onto the foliage by an automated electrostatic plant sprayer equipped with an atomizing spray nozzle. The plants were dried in the sprayer fume hood and then removed from the sprayer. Each pot was placed into perforated plastic bags with a zip closure. About 10 to 11 armyworm larvae were placed into the bag and the bags zipped closed. Test plants were maintained in a growth room at about 25° C. and about 20-40% relative humidity for 4 days, avoiding direct exposure to fluorescent light (24 hour photoperiod) to prevent trapping of heat inside the bags. Mortality and reduced feeding were assessed 4 days after treatment, compared to untreated control plants.

Where only a bound is given, the exact number is not on record here.

Take `CC(C)c1ccccc1NC(=S)N/N=C/c1ccc2c(C(=N)Nc3ccc(OC(F)(F)F)cc3)nn(C)c2c1` [Example C-1, 1-(2-isopropylphenyl)-3-[(E)-[1-methyl-3-[N-[4(trifluoromethoxy)phenyl]carbamimidoyl]indazol-6-yl]methyleneamino]thiourea]: the mortality at 500 ppm in assay [1] and in assay [3] was at least 75% each time. The mortality at 800 ppm in assay [2] was at least 75%; in assay [4], at least 50%; in assay [5], at least 75%. In addition, the mortality at 300 ppm in assay [6] and in assay [7] was at least 75% throughout.
In the case of `CC(C)c1ccccc1N1C(=O)CS/C1=N/N=C/c1ccc2c(C(=N)Nc3ccc(OC(F)(F)F)cc3)nn(C)c2c1` [Example C-2, 6-[(E)-[(E)-[3-(2-isopropylphenyl)-4-oxo-thiazolidin-2-ylidene]hydrazono]methyl]-1-methyl-N-[4-(trifluoromethoxy)phenyl]indazole-3-carboxamidine], the mortality at 500 ppm in assay [1] and in assay [3] was at least 75% throughout. The mortality at 800 ppm was at least 75% in assay [2], at least 50% in assay [4] and at least 75% in assay [5]. The mortality at 300 ppm in assay [6] and in assay [7] was at least 75% in each case.
Consider `CO[C@@H]1[C@@H](OC)[C@H](C)O[C@@H](OC(=O)Nc2ccc3c(C(=S)N(C)c4ccc(OC(F)(F)F)cc4)nn(C)c3c2)[C@@H]1OC` [Example C-4, [(2S,3R,4R,5S,6S)-3,4,5-trimethoxy-6-methyl-tetrahydropyran-2-yl]N-[1-methyl-3-[methyl-[4-(trifluoromethoxy)phenyl]carbamothioyl]indazol-6-yl]carbamate], for which the mortality at 500 ppm in assay [1] and in assay [3] was at least 75% in each case. In addition, the mortality at 800 ppm in assay [2] was at least 75%; in assay [4] it was at least 50%; in assay [5] it was at least 75%. Besides, the mortality at 300 ppm in assay [6] is at least 75%.
For the compound `CC(C)c1ccccc1/N=C1\SCC(=O)N1/N=C/c1ccc2c(C(N)=Nc3ccc(OC(F)(F)F)cc3)nsc2c1` [Example C-28, 6-[(E)-[(2Z)-2-(2-isopropylphenyl)imino-4-oxo-thiazolidin-3-yl]iminomethyl]-N′-[4-(trifluoromethoxy)phenyl]-1,2-benzothiazole-3-carboxamidine], the mortality at 500 ppm in assay [1] and in assay [3] was at least 75% each time. Besides, the mortality at 800 ppm was at least 75% in assay [2], at least 50% in assay [4] and at least 75% in assay [5]. Besides, the mortality at 300 ppm in assay [6] and in assay [7] was at least 75% in each case.
In the case of `CSC(=N/N=C/c1ccc2c(C(=N)Nc3ccc(OC(F)(F)F)cc3)nn(C)c2c1)Nc1ccccc1C(C)C` [Example C-35, 1-(2-isopropylphenyl)-2-methyl-3-[(E)-[1-methyl-3-[N-[4-(trifluoromethoxy)phenyl]carbamimidoyl]indazol-6-yl]methyleneamino]isothiourea], the mortality at 500 ppm in assay [1] and in assay [3] was at least 75% throughout. The mortality at 800 ppm in assay [2] was at least 75%; in assay [4] it was at least 50%; in assay [5], at least 75%. Besides, the mortality at 300 ppm in assay [6] and in assay [7] was at least 75% in each case.
As for `CC(C)c1ccccc1NC(=S)N/N=C/c1ccc2c(NC(=N)c3ccc(OC(F)(F)F)cc3)nn(C)c2c1` [Example C-38, 1-(2-isopropylphenyl)-3-[(E)-[1-methyl-3-[[4-(trifluoromethoxy)benzenecarboximidoyl]amino]indazol-6-yl]methyleneamino]thiourea], the mortality at 500 ppm in assay [1] and in assay [3] was at least 75% in each case. Moreover, the mortality at 800 ppm in assay [2] was at least 75%; in assay [4] it was at least 50%; in assay [5], at least 75%. For the same compound, the mortality at 300 ppm in assay [6] and in assay [7] was at least 75% throughout.
As for `CC(C)c1ccccc1N1C(=O)CS/C1=N\N=C\c1ccc2c(NC(=N)c3ccc(OC(F)(F)F)cc3)nn(C)c2c1` [Example C-39, N-[6-[(E)-[(Z)-[3-(2-isopropylphenyl)-4-oxo-thiazolidin-2-ylidene]hydrazono]methyl]-1-methyl-indazol-3-yl]-4-(trifluoromethoxy)benzamidine], the mortality at 500 ppm in assay [1] and in assay [3] was at least 75% throughout. In addition, the mortality at 800 ppm is at least 75% in assay [2], at least 50% in assay [4] and at least 75% in assay [5]. Besides, the mortality at 300 ppm in assay [6] and in assay [7] was at least 75% in each case.

Usually mortality stands for the share of the test organisms that died.
